According to patent US5688760A, “Polypeptides having bone resorption inhibitory activity comprising PTHrP-derived sequences” (Genentech, Inc., priority 1990, dated 1997):
Non-standard residues stand in square brackets, D forms with d. No end group written: not given here. 2Nal = N[C@@H](Cc1ccc2ccccc2c1)C(=O)O; Aib = CC(C)(N)C(=O)O

Legend:
isolated osteoclasts = assay: Osteoclast isolation and assay of bone resorption (resorption pits per osteoclast on bovine cortical bone slices); format: cell-based, neonatal female Wistar rats; parameters: key to Activity (bone resorption inhibitory activity), Table 3 Effect of Amino Acid Substitutions: bone resorption inhibitory activity is designated by a "+"; inactivity by "-"; details: for Activity (bone resorption inhibitory activity), Table 3 Effect of Amino Acid Substitutions: amino acid derivatives of PTHrP (107-111)
Method: For example, osteoclasts may be settled on sections of bone and incubated in the presence of, and in the absence of test compounds. Osteoclasts can be determined histochemically and can then be removed following incubation with bone sections by, for example, ultrasonification and the bone surface examined by microscopy to measure resorption pits produced per isolated osteoclasts. The number of resorption pits may be counted and their areas quantitated, for example by digitized morphometry. The variants or derivatives with inhibitory activity on bone resorption will, of course, inhibit the activity of osteoclasts in resorption of bone, which can be readily ascertained by analysis of bone sections. Likewise, variants or derivatives which have no effect in inhibiting bone resorption or which stimulate bone resorption will be evidenced by the formation of resorption pits on bone-sections.
Osteoclasts were isolated from neonatal female Wistar rats by curetting the long bones into culture medium (HEPES-buffered Medium 199 [Trademark Flow Laboratories]). The resulting cell suspension was allowed to settle onto 100 μm thick slices of devitalized bovine cortical bone for 20 minutes before rinsing. After this brief settling period, the majority of contaminating cells are removed in the rinsing step, resulting in a functionally pure population of osteoclasts. The bone slices were then incubated in tissue culture medium (Eagle's Minimum Essential Medium [Flow Laboratories] supplemented, with 100 iU/ml benzylpenicillin 100 μg/ml streptomycin and 10% heat-inactivated fetal bovine serum) at 37° C. in 95% air, 5% CO2, pH 7.3 in the presence or absence of test agents. After 24 hours, the cells were fixed, reacted cytochemically for tartrate-resistant acid phosphatase (TRACP) and the number of multinucleated cells with strong reactions for TRACP (i.e. osteoclasts) counted. The cells were then stripped by ultrasonication in 0.25M NH4 OH prior to processing for scanning electronic microscopy. The entire surface of each bone slice was scanned and the number of resorption pits counted. In selected experiments the depth of the pits are assessed. There was a minimum of 6 replicates for each concentration point for each peptide. Each experiment was repeated at least 3 times. Statistical significance was determined by using Student's t test to compare each treatment with control. Bone resorption can be expressed as pit No./OC/bone slice, total excavated plan area/OC/bone slice, or total excavated volume of bone/OC/bone slice. Such assays are routine and readily amenable to the screening of large numbers of compounds for bone resorption inhibitory activity.

[1] = test system: Cyclic AMP in osteoclasts; assay: Cyclic AMP assay in isolated osteoclasts; format: cell-based, rat; details: osteoclasts pretreated with isobutylmethylxanthine 1 mM, peptide for 10 minutes
Method: Recombinant hPTHrP(1-141) and recombinant hPTHrP(1-108) were prepared and purified as previously described (Suva et al., Supra, incorporated herein by reference). hPTHrP(107-139), […]COOH (SEQ ID NO:2), and other peptides were synthesized as carboxy-terminal amides, using an Applied Biosystems Peptide Synthesizer Model 430. Following HF cleavage, peptides were extracted from the resin with 60% (v/v) acetonitrile and 0.1% (v/v) trifluoroacetic acid and lyophilized. The crude peptides were purified by […] (2.5×90 cm column, C18, 20-30 μm. 300 Å resin, Vydac, California) with an acetonitrile gradient in the presence of 0.1% trifluoroacetic acid. The composition of the synthetic peptides was verified by quantitative amino acid analysis using a Beckman 6300 amino acid analyser. Cyclic AMP Assay: Osteoclasts were isolated as described above into 12-well tissue culture plates (Linbro). The cultures were pretreated with isobutylmethylxanthine (1 mM) for 20 minutes prior to administration of test peptides for 10 minutes. Cyclic AMP was extracted with 95% (v/v) ethanol/1 mM HCl and measured by radioimmunoassay. Four to six replicate wells were used in each treatment group.

[2] = In vivo serum calcium levels after intravenous injection in rats; details: 100 nanograms 100 grams body weight, saline control about 2.58
Method: Mammalian serum calcium levels are tightly controlled by homeostatic mechanisms and show little variation. A model peptide, PTHrP 107-139 was injected intraveneously into rats (n=10) in an amount of 100 nanograms 100 grams body weight whereafter serum calcium levels were measured at 30 and 60 minutes by atomic absorption spectrascopy according to standard methods. Control groups of animals were injected with a positive control, calcitonin, which causes a decrease in serum calcium levels, as well as a negative control in the form of saline. Two groups of 10 rats ware used in these controls.

In the case of CC1CNCCN1S(=O)(=O)c1cccc2cnccc12 (stereo not shown) [H7, 1-(5-isoquinolinesulfonyl)-2 methyl piperazine, reference compound], the “effect of PTHrP(107-139) on osteoclasts in the presence of protein kinase C inhibitor” value (isolated osteoclasts) is reported as “blocked”.
In the case of T R C A W P G T C (TRCAWPGTC), the “Activity (bone resorption inhibitory activity), Table 3 Effect of Amino Acid Substitutions” value (isolated osteoclasts) is reported as “+”.
For “T R S npA (TRS[2Nal]; not fully specified (C-terminus); printed as T R S npA) [npA is 3(2-napthyl)alanine]”, the “Activity (bone resorption inhibitory activity), Table 3 Effect of Amino Acid Substitutions” value (isolated osteoclasts) was “+”.
In the case of “T R SmeA W (TRS[Aib]W; not fully specified (C-terminus); printed as T R SmeA W) [me is α-methyl]”, the “Activity (bone resorption inhibitory activity), Table 3 Effect of Amino Acid Substitutions” value (isolated osteoclasts) is reported as “+”.
With “Thr Arg Ser Ala Trp Leu Asp Ser Gly Val Thr Gly Ser Gly Leu Glu Gly Asp His Leu Ser Asp Thr Ser Thr Thr Ser Leu Glu Leu Asp Ser Arg-COOH (TRSAWLDSGVTGSGLEGDHLSDTSTTSLELDSR-OH) [PTHrP(107-139)]” the “inhibition of resorption (pit number/osteoclast number), FIG. 2” value (isolated osteoclasts; peptides at 1 nM) was “substantial inhibition”, the “cyclic AMP response” value [1] was “no elevation” and the “serum calcium level at 30 minutes after injection” value [2] was 2.35 millimolar. The “serum calcium level at 60 minutes after injection” value [2] was “about 2.55 millimolar”.
With calcitonin [reference compound] the “serum calcium level at 30 minutes after injection” value [2] was “about 2.35 millimolar”.
In the case of calmon calcitonin [reference compound], the “cyclic AMP response” value [1] is reported as 2.5 fold.
